Data on one compound can be found in paper PMC8450872 (Human Reproduction (Oxford, England), 2021).

The target of this experiment is CatSper (Homo sapiens, UniProt Q7RTX7+Q86XQ3+Q8NEC5+Q96P56). Briefly: whole-cell patch clamp of human sperm. The experiment is classed as cell-based.
Chain of CatSper (Q96P56 whole entry): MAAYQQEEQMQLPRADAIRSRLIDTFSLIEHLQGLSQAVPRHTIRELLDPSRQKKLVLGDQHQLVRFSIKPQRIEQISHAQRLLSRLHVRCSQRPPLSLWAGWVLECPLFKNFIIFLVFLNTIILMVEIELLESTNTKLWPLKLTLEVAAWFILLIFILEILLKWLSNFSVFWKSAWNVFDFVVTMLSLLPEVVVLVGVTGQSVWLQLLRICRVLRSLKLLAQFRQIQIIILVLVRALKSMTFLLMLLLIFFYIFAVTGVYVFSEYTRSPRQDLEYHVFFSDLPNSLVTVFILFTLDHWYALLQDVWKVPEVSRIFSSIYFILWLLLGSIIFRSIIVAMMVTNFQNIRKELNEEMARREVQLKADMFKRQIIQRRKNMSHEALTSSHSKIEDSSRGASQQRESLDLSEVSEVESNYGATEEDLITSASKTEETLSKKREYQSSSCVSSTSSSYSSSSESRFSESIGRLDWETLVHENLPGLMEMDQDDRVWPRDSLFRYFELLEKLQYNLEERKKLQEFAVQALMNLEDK
Chain of CatSper (Q8NEC5 whole entry): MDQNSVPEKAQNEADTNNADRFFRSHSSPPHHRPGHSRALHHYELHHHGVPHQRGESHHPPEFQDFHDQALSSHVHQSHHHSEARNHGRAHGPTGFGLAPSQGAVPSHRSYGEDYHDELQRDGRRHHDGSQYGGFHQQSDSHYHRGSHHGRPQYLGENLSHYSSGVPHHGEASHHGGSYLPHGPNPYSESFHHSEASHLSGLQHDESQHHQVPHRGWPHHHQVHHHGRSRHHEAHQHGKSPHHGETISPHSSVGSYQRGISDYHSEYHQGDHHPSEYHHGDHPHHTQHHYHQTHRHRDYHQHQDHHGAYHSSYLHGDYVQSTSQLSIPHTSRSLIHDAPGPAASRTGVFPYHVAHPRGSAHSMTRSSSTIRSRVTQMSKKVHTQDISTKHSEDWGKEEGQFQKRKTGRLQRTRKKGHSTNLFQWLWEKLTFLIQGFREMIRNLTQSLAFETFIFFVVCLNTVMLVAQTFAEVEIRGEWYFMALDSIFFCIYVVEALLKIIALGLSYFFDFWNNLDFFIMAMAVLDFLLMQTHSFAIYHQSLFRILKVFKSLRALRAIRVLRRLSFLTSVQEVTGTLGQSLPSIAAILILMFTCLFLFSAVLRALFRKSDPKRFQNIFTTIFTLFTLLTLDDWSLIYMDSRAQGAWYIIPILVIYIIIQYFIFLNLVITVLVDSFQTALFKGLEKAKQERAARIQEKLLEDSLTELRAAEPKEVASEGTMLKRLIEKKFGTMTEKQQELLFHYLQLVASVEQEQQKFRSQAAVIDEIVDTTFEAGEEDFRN
Chain of CatSper (Q86XQ3 whole entry): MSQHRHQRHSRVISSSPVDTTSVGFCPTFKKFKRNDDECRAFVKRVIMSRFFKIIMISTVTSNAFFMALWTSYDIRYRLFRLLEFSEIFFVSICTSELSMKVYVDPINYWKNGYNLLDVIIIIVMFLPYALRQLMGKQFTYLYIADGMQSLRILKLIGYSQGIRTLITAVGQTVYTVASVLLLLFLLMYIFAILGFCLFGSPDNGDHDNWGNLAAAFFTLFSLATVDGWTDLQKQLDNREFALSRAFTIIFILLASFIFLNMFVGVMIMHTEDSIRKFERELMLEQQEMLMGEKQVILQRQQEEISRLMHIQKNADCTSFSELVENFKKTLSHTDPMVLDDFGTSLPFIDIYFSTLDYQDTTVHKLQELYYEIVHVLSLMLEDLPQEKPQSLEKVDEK
Chain of CatSper (Q7RTX7 whole entry): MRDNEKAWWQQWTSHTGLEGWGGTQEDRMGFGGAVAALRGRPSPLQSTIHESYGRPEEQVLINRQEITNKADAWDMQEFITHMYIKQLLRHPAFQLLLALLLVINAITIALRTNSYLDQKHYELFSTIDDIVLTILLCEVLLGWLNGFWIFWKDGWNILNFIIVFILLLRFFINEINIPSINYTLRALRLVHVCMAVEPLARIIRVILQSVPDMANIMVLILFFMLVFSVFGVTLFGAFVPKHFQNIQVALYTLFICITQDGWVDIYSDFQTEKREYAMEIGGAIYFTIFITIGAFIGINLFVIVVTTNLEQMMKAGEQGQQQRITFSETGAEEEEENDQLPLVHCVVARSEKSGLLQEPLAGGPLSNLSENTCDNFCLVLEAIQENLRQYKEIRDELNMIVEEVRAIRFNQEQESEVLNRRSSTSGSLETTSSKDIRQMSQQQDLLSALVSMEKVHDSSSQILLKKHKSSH

In turn, `CN[C@H]1CC[C@@H](c2ccc(Cl)c(Cl)c2)c2ccccc21` [Sertraline] gave a half-maximal inhibitory concentration (IC50) of 4.62 ± 1.18 µM.
